The values that follow come from patent publication US9944589B2, “Cycloproplyamine derivatives useful as inhibitors of histone demethylases KDM1A” (Istituto Europeo de Oncologia S.r.L., priority 2012, dated 2018).

The target in assay [1] is T1, human recombinant KDM1A (LSD1)/CoRest (Homo sapiens, UniProt O60341).
T1 construct: made in house; host or cells: E. coli
Put plainly: Assay of enzyme inhibition of KDM1A (LSD1), Amplex UltraRed/peroxidase coupled. The format is biochemical. The following applies: 15 min preincubation, 4.5 μM mono-methylated H3-K4 peptide, range classes, read-out: IC50 [μM], KDM1A inhibition assay. Put shortly: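 KDM1A/CoRest complex with inhibitor (e.g. 0–100 μM) and Amplex UltraRed/peroxidase preincubated 15 min at RT. Substrate: mono-methylated H3K4 21-mer peptide in 50 mM Tris pH 8, 0.05 mg/ml BSA, aerobic. IC50 from duplicates run twice, background-corrected.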

Assay [2] deals with Acute promyelocytic leukemia NB4 cells. Put plainly: Cell growth (CellTiter-Fluor cell viability assay). It is filed as cell-based. The conditions noted are these: Homo sapiens, NB-4, 48 h, range classes, read-out: IC50 [μM], cell growth inhibitory assay. The source says: CellTiter-Flor® (Promega) is as a nonlytic, single-reagent-addition fluorescence assay that measures the relative number of living cells in a culture population after experimental manipulation. The CellTiter-Fluor™ Cell Viability Assay measures the conserved and constitutive protease activity within live cells and therefore acts as a marker for cell viability.
Acute promyelocytic leukemia NB4 cells, (obtained from the Deutsche Sammlung von Mikroorganismen and Zellkulturen) in exponential growth, were incubated for 48 h with different concentrations of the inhibitors. After 48 h a volume of CellTiter-Fluor® Reagent equal to one fifth of volume of cell culture medium was added. The content was mixed and incubates for at least 90 min at 37° C. degree to obtain a stable signal. The fluorescence was recorded using an excitation wavelength of 360 nm and an emission at 535 nm. The IC50 was calculated using GraphPad Software.

Structures are written as SMILES. Structures can show the parent of a compound that is named as a salt. Some results are limits rather than exact numbers.

Consider `N[C@]1(Cc2ccc3ccccc3c2)C[C@H]1c1ccc(NC(=O)Cc2ccccc2)cc1` (relative stereo) [Example A-46, N-[4-[(trans-2-amino-2-(2-naphthylmethyl)cyclopropyl]phenyl]-2-phenyl-acetamide hydrochloride], for which the half-maximal inhibitory concentration (IC50) was less than 0.1 µM in assay [1] and no more than 10 µM in assay [2].
On the same counts, the results for `CC[C@@]1(N)C[C@H]1c1ccc(NC(=O)Cc2cccc3ccccc23)cc1` (relative stereo) [Example A-68, N-[4-trans-[2-amino-2-ethyl-cyclopropyl]phenyl]-2-(1-naphthyl) acetamide hydrochloride] are less than 0.1 µM and 10 to 50 µM.
Regarding `N[C@]1(Cc2ccc3ccccc3c2)C[C@H]1c1ccc(NC(=O)c2ccc(NC(=O)OCc3ccccc3)cc2)cc1` (relative stereo) [Example A-70, benzyl N-[4-[[4-[trans-2-amino-2-(2-naphthylmethyl)cyclopropyl]phenyl]carbamoyl]phenyl]carbamate 2,2,2-trifluoroacetic acid], the IC50 in assay [1] was 0.1 to 1 µM; in assay [2], no more than 10 µM.
Consider `CC[C@@]1(N)C[C@H]1c1ccc(NC(=O)c2cccc3ccccc23)cc1` (relative stereo) [Example A-71, N-[4-(trans-2-amino-2-ethyl-cyclopropyl)phenyl] naphthalene-1-carboxamide hydrochloride], for which the IC50 is less than 0.1 µM in assay [1] and no more than 10 µM in assay [2].
As to `N[C@]1(Cc2ccc3ccccc3c2)C[C@H]1c1ccc(NC(=O)c2ccc3ccccc3c2)cc1` (relative stereo) [Example A-72, N-[4-[trans-2-amino-2-(2-naphthylmethyl)cyclopropyl]phenyl] naphthalene-2-carboxamide hydrochloride], the half-maximal inhibitory concentration (IC50) is 0.1 to 1 µM in assay [1] and no more than 10 µM in assay [2].
Turning to `N[C@]1(Cc2ccc3ccccc3c2)C[C@H]1c1ccc(NC(=O)c2ccc(-c3ccccc3)cc2)cc1` (relative stereo) [Example A-73, N-[4-[trans-2-amino-2-(2-naphthylmethyl)cyclopropyl]phenyl]-4-phenyl-benzamide hydrochloride], the values for the concentration for half-maximal inhibition (IC50) in assay [1] and in assay [2] were 0.1 to 1 µM and 10 to 50 µM, respectively.
As for `CC[C@@]1(N)C[C@H]1c1ccc(NC(=O)Cc2ccc3ccccc3c2)cc1` (relative stereo) [Example A-74, N-[4-trans-2-amino-2-ethyl-cyclopropyl] phenyl]-2-(2-naphthyl) acetamide hydrochloride], the half-inhibitory concentration (IC50) is less than 0.1 µM in assay [1] and 10 to 50 µM in assay [2].
On the same counts, the results for `N[C@]1(c2ccccc2)C[C@H]1c1ccc(NC(=O)c2ccccc2)cc1` (relative stereo) [Example A-75, N-[4-[trans-2-amino-2-phenyl-cyclopropyl]phenyl] benzamide hydrochloride] are less than 0.1 µM and 10 to 50 µM.
With `N[C@]1(Cc2ccc3ccccc3c2)C[C@H]1c1ccc(NC(=O)Cc2cccc3ccccc23)cc1` (relative stereo) [Example A-76, N-[4-[trans-2-amino-2-(2-naphthylmethyl)cyclopropyl]phenyl]-2-(1-naphthyl)acetamide hydrochloride], the IC50 was 0.1 to 1 µM in assay [1] and no more than 10 µM in assay [2].
As for `CC[C@@]1(N)C[C@H]1c1cccc(NC(=O)Cc2cccc3ccccc23)c1` (relative stereo) [Example A-77, N-[3-[trans-2-amino-2-ethyl-cyclopropyl]phenyl]-2-(1-naphthyl) acetamide hydrochloride], the values for the IC50 in assay [1] and in assay [2] were 0.1 to 1 µM and 10 to 50 µM, respectively.
Regarding `N[C@]1(Cc2ccc3ccccc3c2)C[C@H]1c1ccc(NC(=O)c2cccc(Cl)c2)cc1` (relative stereo) [Example A-79, N-[4-[trans-2-amino-2-(2-naphthylmethyl)cyclopropyl]phenyl]-3-chloro-benzamide hydrochloride], the values for the half-maximal inhibitory concentration (IC50) in assay [1] and in assay [2] were less than 0.1 µM and 10 to 50 µM, respectively.

In general, IC50 refers to the concentration that inhibits the measured activity by half.
